Laboratory results: ChEMBL document CHEMBL5537110, “SIRT1-dependent mitochondrial biogenesis supports therapeutic effects of 4-butyl-polyhydroxybenzophenone compounds against NAFLD” (Eur J Med Chem, 2023)
Active and inactive are the calls of the source. No cut-off for these calls is given here.

Columns and labels:
Rattus norvegicus [1] = experiment: Hepatoprotective activity against high fat diet-fed NAFLD Sprague-Dawley rat model assessed as decrease in serum AST level at 12.3 to 61.4 mg/kg, IG administered via gavage for 4 weeks; format: functional, organism-based; details: dose 12.3-61.4 mg/kg
[2] = molecular target: T1, NAD-dependent protein deacetylase sirtuin-1 (Homo sapiens, UniProt Q96EB6); experiment: (§1) Binding affinity to SIRT1 (unknown origin) by surface plasmon resonance assay
T1 sequence (Q96EB6 whole entry): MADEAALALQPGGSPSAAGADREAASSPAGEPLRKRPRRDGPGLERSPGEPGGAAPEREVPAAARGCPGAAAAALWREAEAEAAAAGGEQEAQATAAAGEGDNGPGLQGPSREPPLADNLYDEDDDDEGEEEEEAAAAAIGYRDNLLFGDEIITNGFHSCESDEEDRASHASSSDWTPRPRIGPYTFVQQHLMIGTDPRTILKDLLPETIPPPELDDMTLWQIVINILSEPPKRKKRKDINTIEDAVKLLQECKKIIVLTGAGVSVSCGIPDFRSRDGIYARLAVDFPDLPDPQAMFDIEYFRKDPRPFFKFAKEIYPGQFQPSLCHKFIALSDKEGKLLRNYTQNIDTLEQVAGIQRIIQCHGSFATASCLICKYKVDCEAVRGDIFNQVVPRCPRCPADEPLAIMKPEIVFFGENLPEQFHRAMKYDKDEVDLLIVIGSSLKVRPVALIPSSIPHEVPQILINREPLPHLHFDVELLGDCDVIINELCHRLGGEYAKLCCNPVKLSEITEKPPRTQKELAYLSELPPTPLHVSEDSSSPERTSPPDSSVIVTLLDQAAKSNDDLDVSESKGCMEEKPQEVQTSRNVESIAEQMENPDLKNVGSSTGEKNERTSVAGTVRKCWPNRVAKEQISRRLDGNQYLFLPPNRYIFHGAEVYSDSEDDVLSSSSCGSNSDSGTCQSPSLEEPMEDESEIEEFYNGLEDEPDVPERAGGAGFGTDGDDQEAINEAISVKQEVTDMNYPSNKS

[3] = molecular target: T2, NAD-dependent protein deacetylase sirtuin-1 (Homo sapiens) (UniProt Q96EB6); experiment: as §1; details: filed as activator
T2 sequence (whole entry): T1 sequence (Q96EB6 whole entry)

HepG2 [4] = experiment: Inhibition of liver injury in 40% FBS-induced steatosis human HepG2 cells model assessed as decrease in GDH level at 0.2 to 5 uM incubated with compound for 24 hrs followed by replacement with steatosis inducing DMEM with 40% FBS medium; format: functional, cell-based; details: dose 0.2-5 µM
Rattus norvegicus [5] = experiment: Hepatoprotective activity against high fat diet-fed NAFLD Sprague-Dawley rat model assessed as decrease in serum triglyceride content administered intragastrically via gavage for 4 weeks; format: functional, organism-based; details: dose 12.3-61.4 mg/kg, route ig
HepG2 [6] = experiment: Inhibition of liver injury in 40% FBS-induced steatosis human HepG2 cells model assessed as decrease in ALT level at 0.2 to 5 uM incubated with compound for 24 hrs followed by replacement with steatosis inducing DMEM with 40% FBS medium; format: functional, cell-based; details: dose 0.2-5 µM
[7] = molecular target: T2, NAD-dependent protein deacetylase sirtuin-1 (Homo sapiens); experiment: Binding affinity to SIRT1 in human HepG2 cells assessed as increase in thermal stability of protein pretreated with compound for 30 mins followed by incubation at 50 degC for 3 mins by CETSA-WB analysis; format: cell-based; details: filed as activator, dose 80-320 µM, time 33.0 min
Mitochondria = experiment: Inhibition of mitochondrial dysfunction in 40% FBS-induced steatosis human HepG2 cells model assessed as decrease in lipid vesicle droplets at 5 uM incubated for 24 hrs by transmission electron microscopy; format: functional
HepG2 [8] = experiment: Induction of mitochondrial biogenesis in human HepG2 cells assessed as PGC1alpha mRNA expression incubated for 24 hrs in presence of SIRT1 inhibitor, EX527 by qRT-PCR analysis; format: functional, cell-based
HepG2 [9] = experiment: Recovery of mitochondrial biogenesis in 40% FBS-induced steatosis human HepG2 cells model assessed as increase in mitochondrial COX1 protein expression incubated for 24 hrs by western blot analysis; format: functional, cell-based; details: dose 0.2-5 µM
HepG2 [10] = experiment: Induction of mitochondrial biogenesis in human HepG2 cells assessed as mitochondrial COX1 protein expression incubated for 24 hrs in presence of SIRT1 inhibitor, EX527 by western blot analysis; format: functional, cell-based
HepG2 [11] = experiment: Induction of mitochondrial biogenesis in human HepG2 cells assessed as PGC1alpha protein expression incubated for 24 hrs in presence of SIRT1 inhibitor, EX527 by western blot analysis; format: functional, cell-based
HepG2 [12] = experiment: Recovery of mitochondrial biogenesis in 40% FBS-induced steatosis human HepG2 cells model assessed as increase in NRF1 protein expression incubated for 24 hrs by western blot analysis; format: functional, cell-based; details: dose 0.2-5 µM
HepG2 [13] = experiment: Inhibition of liver injury in 40% FBS-induced steatosis human HepG2 cells model assessed as decrease in LDH level at 0.2 to 5 uM incubated in steatosis inducing DMEM with 40% FBS medium for 24 hrs followed by compound treatment; format: functional, cell-based; details: dose 0.2-5 µM
HepG2 [14] = experiment: Recovery of energy production in 40% FBS-induced steatosis human HepG2 cells model assessed as upregulation of mitochondrial ATP production incubated with compound for 24 hrs followed by replacement with steatosis inducing DMEM with 40% FBS medium by luciferase based assay; format: functional, cell-based; details: Mitochondria, dose 0.2-5 µM
HepG2 [15] = experiment: Induction of mitochondrial biogenesis in human HepG2 cells assessed as NRF1 protein expression incubated for 24 hrs in presence of SIRT1 inhibitor, EX527 by western blot analysis; format: functional, cell-based
HepG2 [16] = experiment: Inhibition of lipid toxicity in 40% FBS-induced steatosis human HepG2 cells model assessed as decrease in lipid accumulation at 0.2 to 5 uM incubated in steatosis inducing DMEM with 40% FBS medium for 24 hrs followed by compound treatment by Oil red O staining based analysis; format: functional, cell-based; details: dose 0.2-5 µM
HepG2 [17] = experiment: Recovery of mitochondrial activity in 40% FBS-induced steatosis human HepG2 cells model assessed as increase in number of mitochondria incubated in steatosis inducing DMEM with 40% FBS medium for 24 hrs followed by compound treatment by MitoTracker Green based fluorescence analysis; format: functional, cell-based; details: dose 0.2-5 µM
HepG2 [18] = experiment: Recovery of mitochondrial activity in 40% FBS-induced steatosis human HepG2 cells model assessed as increase in number of mitochondria incubated with compound for 24 hrs followed by replacement with steatosis inducing DMEM with 40% FBS medium by MitoTracker Green based fluorescence analysis; format: functional, cell-based; details: dose 0.2-5 µM

CC(C)(C)c1ccc(C(=O)c2ccc(O)c(O)c2)cc1
Activity (Rattus norvegicus [1]): Active
Kd [2]: 77.3 µM
Activity [3]: Dose-Dependent Effect
inhibition (HepG2 [4]): Active
Activity (Rattus norvegicus [5]): Dose-Dependent Effect
inhibition (HepG2 [6]): Active
Activity [7]: Dose-Dependent Effect
inhibition (Mitochondria): Active
Activity (HepG2 [8]): inactive
Activity (HepG2 [9]): Dose-Dependent Effect
Activity (HepG2 [10]): inactive
Activity (HepG2 [11]): inactive
Activity (HepG2 [12]): Dose-Dependent Effect
inhibition (HepG2 [13]): Active
Activity (HepG2 [14]): Dose-Dependent Effect
Activity (HepG2 [15]): inactive
inhibition (HepG2 [16]): Active
Activity (HepG2 [17]): Dose-Dependent Effect
Activity (HepG2 [18]): Dose-Dependent Effect
